Data reported in PMC12325182, “Discovery of novel and potent celastrol derivatives as PRDX1 inhibitors for cancer therapy through structure-based virtual screening” (Frontiers in Pharmacology, 2025).

Experiments:
Assay in all cases: Kinase selectivity assay
Assay type in all cases: biochemical
ABL2 = target: T1, ABL2 (Homo sapiens, UniProt P42684); conditions: target ABL2; read-out: CP1 IC50
T1 construct: ICE Biosciences (Beijing, China), ran the assays
Protocol: (§1) The selectivity of CP1 for PRDX1 was evaluated through kinase selectivity assays against other PRDX family members and a panel of kinases. The experiments were conducted by ICE Biosciences (Beijing, China).

ALK = target: T2, ALK (Homo sapiens, UniProt Q9UM73); conditions: target ALK; read-out: CP1 IC50
T2 construct: ICE Biosciences (Beijing, China), ran the assays
Protocol: as §1

EGFR = target: T3, EGFR (Homo sapiens, UniProt P00533); conditions: target EGFR; read-out: CP1 IC50
T3 construct: ICE Biosciences (Beijing, China), ran the assays
Protocol: as §1

EPHA1 = target: T4, EPHA1 (Homo sapiens, UniProt P21709); conditions: target EPHA1; read-out: CP1 IC50
T4 construct: ICE Biosciences (Beijing, China), ran the assays
Protocol: as §1

EPHA2 = target: T5, EPHA2 (Homo sapiens, UniProt P29317); conditions: target EPHA2; read-out: CP1 IC50
T5 construct: ICE Biosciences (Beijing, China), ran the assays
Protocol: as §1

EPHB3 = EPHB3 (Homo sapiens, UniProt P54753); conditions: target EPHB3; read-out: CP1 IC50
Protocol: as §1

EPHB4 = EPHB4 (Homo sapiens, UniProt P54760); conditions: target EPHB4; read-out: CP1 IC50
Protocol: as §1

ERBB2 = ERBB2 (Homo sapiens, UniProt P04626); conditions: target ERBB2; read-out: CP1 IC50
Protocol: as §1

FLT1 = target: T6, FLT1 (Homo sapiens, UniProt P17948); conditions: target FLT1; read-out: CP1 IC50
T6 construct: assay run by ICE Biosciences (Beijing, China)
Protocol: as §1

HCK = target: T7, HCK (Homo sapiens, UniProt P08631); conditions: target HCK; read-out: CP1 IC50
T7 construct: ICE Biosciences (Beijing, China), ran the assays
Protocol: as §1

INSRR = INSRR (Homo sapiens, UniProt P14616); conditions: target INSRR; read-out: CP1 IC50
Protocol: as §1

ITK = ITK (Homo sapiens, UniProt Q08881); conditions: target ITK; read-out: CP1 IC50
Protocol: as §1

JAK2 = JAK2 (Homo sapiens, UniProt O60674); conditions: target JAK2; read-out: CP1 IC50
Protocol: as §1

JAK3 = JAK3 (Homo sapiens, UniProt P52333); conditions: target JAK3; read-out: CP1 IC50
Protocol: as §1

KDR = KDR (Homo sapiens, UniProt P35968); conditions: target KDR; read-out: CP1 IC50
Protocol: as §1

KIT = KIT (Homo sapiens, UniProt P10721); conditions: target KIT; read-out: CP1 IC50
Protocol: as §1

LCK = LCK (Homo sapiens, UniProt P06239); conditions: target LCK; read-out: CP1 IC50
Protocol: as §1

MST1R = MST1R (Homo sapiens, UniProt Q04912); conditions: target MST1R; read-out: CP1 IC50
Protocol: as §1

MUSK = MUSK (Homo sapiens, UniProt O15146); conditions: target MUSK; read-out: CP1 IC50
Protocol: as §1

NTRK2 = NTRK2 (Homo sapiens, UniProt Q16620)
Protocol: as §1

PDGFRA = target: T8, PDGFRA (Homo sapiens, UniProt P16234); conditions: target PDGFRA; read-out: CP1 IC50
T8 construct: assay run by ICE Biosciences (Beijing, China)
Protocol: as §1

PDGFRB = target: T9, PDGFRB (Homo sapiens, UniProt P09619); conditions: target PDGFRB; read-out: CP1 IC50
T9 construct: assay run by ICE Biosciences (Beijing, China)
Protocol: as §1

PRDX3 = target: T10, PRDX3 (Homo sapiens, UniProt P30048); conditions: target PRDX3; read-out: CP1 IC50
T10 construct: ICE Biosciences (Beijing, China), ran the assays
Protocol: as §1

PRDX5 = target: T11, PRDX5 (Homo sapiens, UniProt P30044); conditions: target PRDX5; read-out: CP1 IC50
T11 construct: ICE Biosciences (Beijing, China), ran the assays
Protocol: as §1

PTK2B = target: T12, PTK2B (Homo sapiens, UniProt Q14289); conditions: target PTK2B; read-out: CP1 IC50
T12 construct: assay run by ICE Biosciences (Beijing, China)
Protocol: as §1

PTK6 = target: T13, PTK6 (Homo sapiens, UniProt Q13882); conditions: target PTK6; read-out: CP1 IC50
T13 construct: assay run by ICE Biosciences (Beijing, China)
Protocol: as §1

RET = target: T14, RET (Homo sapiens, UniProt P07949); conditions: target RET; read-out: CP1 IC50
T14 construct: assay run by ICE Biosciences (Beijing, China)
Protocol: as §1

ROS1 = target: T15, ROS1 (Homo sapiens, UniProt P08922); conditions: target ROS1; read-out: CP1 IC50
T15 construct: assay run by ICE Biosciences (Beijing, China)
Protocol: as §1

SRC = target: T16, SRC (Homo sapiens, UniProt P12931); conditions: target SRC; read-out: CP1 IC50
T16 construct: assay run by ICE Biosciences (Beijing, China)
Protocol: as §1

SRMS = target: T17, SRMS (Homo sapiens, UniProt Q9H3Y6); conditions: target SRMS; read-out: CP1 IC50
T17 construct: assay run by ICE Biosciences (Beijing, China)
Protocol: as §1

SYK = target: T18, SYK (Homo sapiens, UniProt P43405); conditions: target SYK; read-out: CP1 IC50
T18 construct: assay run by ICE Biosciences (Beijing, China)
Protocol: as §1

TEK = target: T19, TEK (Homo sapiens, UniProt Q02763); conditions: target TEK; read-out: CP1 IC50
T19 construct: assay run by ICE Biosciences (Beijing, China)
Protocol: as §1

TYRO3 = target: T20, TYRO3 (Homo sapiens, UniProt Q06418); conditions: target TYRO3; read-out: CP1 IC50
T20 construct: ICE Biosciences (Beijing, China), a contract laboratory that ran the assay
Protocol: as §1

YES1 = target: T21, YES1 (Homo sapiens, UniProt P07947); conditions: target YES1; read-out: CP1 IC50
T21 construct: ICE Biosciences (Beijing, China), a contract laboratory that ran the assay
Protocol: as §1

Measured: IC50

T21 sequence (P07947 whole entry, species assumed): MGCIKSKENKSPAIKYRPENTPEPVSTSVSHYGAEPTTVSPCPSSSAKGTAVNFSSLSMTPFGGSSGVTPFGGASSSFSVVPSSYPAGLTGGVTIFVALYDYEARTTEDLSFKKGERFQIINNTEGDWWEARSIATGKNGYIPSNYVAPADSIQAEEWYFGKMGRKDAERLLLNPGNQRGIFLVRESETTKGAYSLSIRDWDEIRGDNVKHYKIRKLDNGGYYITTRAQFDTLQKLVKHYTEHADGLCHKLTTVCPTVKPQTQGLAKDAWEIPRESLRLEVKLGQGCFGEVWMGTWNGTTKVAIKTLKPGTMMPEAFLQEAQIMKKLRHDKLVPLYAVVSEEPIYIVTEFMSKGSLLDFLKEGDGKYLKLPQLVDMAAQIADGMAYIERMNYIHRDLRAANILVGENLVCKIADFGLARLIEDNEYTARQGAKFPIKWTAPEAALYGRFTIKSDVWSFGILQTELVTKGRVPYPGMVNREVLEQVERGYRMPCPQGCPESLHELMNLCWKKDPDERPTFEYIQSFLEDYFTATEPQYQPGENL
T15 sequence (P08922 28-2347): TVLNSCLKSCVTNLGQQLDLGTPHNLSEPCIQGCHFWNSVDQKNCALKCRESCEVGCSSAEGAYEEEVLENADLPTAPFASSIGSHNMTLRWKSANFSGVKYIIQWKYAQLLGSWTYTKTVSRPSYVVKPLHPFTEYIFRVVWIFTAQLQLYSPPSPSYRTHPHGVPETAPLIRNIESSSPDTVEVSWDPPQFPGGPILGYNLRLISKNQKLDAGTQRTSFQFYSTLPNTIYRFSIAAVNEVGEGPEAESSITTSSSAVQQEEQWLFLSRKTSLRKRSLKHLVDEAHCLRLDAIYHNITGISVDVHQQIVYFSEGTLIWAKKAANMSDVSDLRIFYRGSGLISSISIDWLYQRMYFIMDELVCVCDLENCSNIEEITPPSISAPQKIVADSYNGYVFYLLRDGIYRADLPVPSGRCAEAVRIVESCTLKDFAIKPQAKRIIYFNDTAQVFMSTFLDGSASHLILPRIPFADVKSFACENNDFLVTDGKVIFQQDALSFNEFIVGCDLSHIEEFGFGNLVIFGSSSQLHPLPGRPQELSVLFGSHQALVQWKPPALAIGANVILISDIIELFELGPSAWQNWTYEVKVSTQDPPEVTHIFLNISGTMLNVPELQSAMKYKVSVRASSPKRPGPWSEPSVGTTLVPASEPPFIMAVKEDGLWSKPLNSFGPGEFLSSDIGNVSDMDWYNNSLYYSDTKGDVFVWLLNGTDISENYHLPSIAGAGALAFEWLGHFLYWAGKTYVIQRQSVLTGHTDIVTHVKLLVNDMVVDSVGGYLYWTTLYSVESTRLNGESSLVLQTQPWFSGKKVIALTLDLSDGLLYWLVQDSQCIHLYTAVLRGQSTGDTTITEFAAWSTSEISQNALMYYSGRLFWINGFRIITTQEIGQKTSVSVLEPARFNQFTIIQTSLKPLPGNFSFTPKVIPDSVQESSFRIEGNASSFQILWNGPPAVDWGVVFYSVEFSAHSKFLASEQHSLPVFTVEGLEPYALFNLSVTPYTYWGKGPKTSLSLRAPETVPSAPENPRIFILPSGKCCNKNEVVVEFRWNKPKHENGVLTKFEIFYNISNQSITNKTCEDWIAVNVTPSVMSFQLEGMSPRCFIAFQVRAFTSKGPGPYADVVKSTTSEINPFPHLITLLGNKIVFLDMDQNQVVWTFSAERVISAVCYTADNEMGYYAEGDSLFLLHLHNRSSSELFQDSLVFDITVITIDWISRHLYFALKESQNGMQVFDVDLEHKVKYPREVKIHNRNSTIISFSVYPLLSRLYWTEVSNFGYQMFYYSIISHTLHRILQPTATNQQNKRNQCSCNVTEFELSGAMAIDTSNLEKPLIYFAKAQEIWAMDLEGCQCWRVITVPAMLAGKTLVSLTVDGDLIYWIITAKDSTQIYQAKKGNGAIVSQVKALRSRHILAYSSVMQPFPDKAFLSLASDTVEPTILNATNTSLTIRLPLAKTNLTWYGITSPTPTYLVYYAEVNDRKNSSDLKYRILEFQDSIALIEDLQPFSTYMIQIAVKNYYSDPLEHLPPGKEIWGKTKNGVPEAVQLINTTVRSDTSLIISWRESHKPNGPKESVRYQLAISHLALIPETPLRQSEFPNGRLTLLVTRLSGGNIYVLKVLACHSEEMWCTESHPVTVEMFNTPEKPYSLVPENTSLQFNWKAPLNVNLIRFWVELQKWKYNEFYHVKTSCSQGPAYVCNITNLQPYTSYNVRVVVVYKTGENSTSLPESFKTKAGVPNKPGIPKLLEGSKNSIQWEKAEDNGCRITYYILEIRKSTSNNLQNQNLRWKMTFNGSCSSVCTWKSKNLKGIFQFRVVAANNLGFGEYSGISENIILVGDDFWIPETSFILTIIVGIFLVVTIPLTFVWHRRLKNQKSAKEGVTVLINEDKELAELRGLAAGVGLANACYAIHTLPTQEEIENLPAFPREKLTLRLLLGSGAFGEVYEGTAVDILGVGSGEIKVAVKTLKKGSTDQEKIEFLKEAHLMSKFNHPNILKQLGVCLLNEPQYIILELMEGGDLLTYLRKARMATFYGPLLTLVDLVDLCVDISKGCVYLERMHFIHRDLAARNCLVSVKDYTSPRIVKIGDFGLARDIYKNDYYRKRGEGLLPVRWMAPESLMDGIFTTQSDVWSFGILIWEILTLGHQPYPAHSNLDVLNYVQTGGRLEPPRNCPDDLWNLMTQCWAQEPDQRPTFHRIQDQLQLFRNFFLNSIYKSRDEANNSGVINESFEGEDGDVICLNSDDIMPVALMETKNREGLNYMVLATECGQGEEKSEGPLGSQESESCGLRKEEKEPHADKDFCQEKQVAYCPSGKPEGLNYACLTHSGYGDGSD
JAK3, sequence (P52333 whole entry): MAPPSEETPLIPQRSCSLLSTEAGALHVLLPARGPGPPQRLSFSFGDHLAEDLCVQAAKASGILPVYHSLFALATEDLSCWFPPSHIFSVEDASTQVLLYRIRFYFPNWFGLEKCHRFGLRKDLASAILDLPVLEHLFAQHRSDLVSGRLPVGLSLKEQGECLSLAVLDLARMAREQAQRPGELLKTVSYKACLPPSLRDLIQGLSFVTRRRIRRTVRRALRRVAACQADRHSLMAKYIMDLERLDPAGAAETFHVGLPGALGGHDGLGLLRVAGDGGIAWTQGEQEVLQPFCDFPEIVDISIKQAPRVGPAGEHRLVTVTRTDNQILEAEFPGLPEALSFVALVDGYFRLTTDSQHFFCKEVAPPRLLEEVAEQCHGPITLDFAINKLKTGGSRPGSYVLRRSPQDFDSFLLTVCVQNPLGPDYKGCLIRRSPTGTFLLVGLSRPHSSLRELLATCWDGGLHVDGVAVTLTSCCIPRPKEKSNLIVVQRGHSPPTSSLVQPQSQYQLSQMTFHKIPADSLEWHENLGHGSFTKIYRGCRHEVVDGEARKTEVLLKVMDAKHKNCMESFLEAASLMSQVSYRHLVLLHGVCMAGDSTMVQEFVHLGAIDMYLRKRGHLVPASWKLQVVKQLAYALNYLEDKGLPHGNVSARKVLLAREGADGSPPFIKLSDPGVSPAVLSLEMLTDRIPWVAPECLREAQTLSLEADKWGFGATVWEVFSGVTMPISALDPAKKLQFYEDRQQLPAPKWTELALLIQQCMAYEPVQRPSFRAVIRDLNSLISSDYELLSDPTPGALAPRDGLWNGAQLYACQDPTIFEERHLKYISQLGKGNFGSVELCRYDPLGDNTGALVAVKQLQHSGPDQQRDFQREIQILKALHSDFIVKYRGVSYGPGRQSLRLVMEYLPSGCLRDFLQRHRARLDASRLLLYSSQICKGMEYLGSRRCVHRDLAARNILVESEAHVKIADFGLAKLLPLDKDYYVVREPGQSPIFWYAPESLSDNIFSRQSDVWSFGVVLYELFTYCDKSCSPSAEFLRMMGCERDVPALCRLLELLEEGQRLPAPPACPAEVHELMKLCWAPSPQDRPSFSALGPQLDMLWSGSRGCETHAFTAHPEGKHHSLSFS
T4 sequence (P21709 26-976): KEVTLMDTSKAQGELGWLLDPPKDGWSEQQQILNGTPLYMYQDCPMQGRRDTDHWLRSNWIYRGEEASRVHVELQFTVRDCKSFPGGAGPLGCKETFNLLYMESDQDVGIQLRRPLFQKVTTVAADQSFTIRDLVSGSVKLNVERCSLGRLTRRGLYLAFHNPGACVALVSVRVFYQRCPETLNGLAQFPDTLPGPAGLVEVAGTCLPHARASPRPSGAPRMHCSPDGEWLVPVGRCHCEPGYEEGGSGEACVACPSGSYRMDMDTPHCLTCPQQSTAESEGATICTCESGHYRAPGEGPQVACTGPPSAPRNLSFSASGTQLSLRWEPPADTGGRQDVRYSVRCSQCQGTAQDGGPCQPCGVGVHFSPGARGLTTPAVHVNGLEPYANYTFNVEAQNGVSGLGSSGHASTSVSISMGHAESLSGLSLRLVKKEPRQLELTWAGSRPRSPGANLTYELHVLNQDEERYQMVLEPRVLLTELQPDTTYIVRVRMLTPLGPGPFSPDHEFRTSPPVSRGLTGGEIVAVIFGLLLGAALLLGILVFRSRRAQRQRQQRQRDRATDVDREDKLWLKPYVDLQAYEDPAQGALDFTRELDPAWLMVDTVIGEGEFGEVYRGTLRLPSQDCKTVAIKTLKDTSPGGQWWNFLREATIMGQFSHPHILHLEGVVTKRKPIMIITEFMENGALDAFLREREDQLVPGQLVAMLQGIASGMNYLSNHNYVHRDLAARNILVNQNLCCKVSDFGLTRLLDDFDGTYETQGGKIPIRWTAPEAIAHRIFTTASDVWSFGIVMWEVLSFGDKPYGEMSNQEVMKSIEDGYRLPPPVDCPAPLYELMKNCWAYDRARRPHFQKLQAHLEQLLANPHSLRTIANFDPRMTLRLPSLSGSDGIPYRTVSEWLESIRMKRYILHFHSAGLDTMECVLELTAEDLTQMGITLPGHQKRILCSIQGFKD
T11 sequence (P30044 53-214): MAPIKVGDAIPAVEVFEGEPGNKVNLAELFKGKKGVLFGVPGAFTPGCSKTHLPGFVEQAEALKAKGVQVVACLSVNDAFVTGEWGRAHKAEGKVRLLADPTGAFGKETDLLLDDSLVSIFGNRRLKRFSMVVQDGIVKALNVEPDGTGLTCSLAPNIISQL

CC1=C(CC(=O)/C=C/c2cccc(CO)c2)C(=O)C=C2C1=CC=C1[C@@]2(C)CC[C@@]2(C)C3C[C@](C)(C(=O)CCc4nc(C(O)C(O)O)c(C)nc4C)CC[C@]3(C)CC[C@]12C (stereo partly shown) [CP1]
> 30 µM: ABL2 | ALK | EGFR | EPHA1 | EPHA2 | EPHB3 | EPHB4 | ERBB2 | FLT1 | HCK | INSRR | ITK | JAK2 | JAK3 | KDR | KIT | LCK | MST1R | MUSK | NTRK2 | PDGFRA | PDGFRB | PRDX3 | PRDX5 | PTK2B | PTK6 | RET | ROS1 | SRC | SRMS | SYK | TEK | TYRO3 | YES1
